The experiment concerns Saccharomyces cerevisiae ABC16-Green Monster. Briefly: growth inhibition at single dose (up to 150 µM), below the 70% cut-off for dose-response; higher = more potent. The following applies: 18 h; 30 °C; YPD. In short, it runs like this:
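The entry is percent growth inhibition of drug-sensitive S. cerevisiae ABC16-Green Monster cells. After overnight growth in YPD at 30 °C, cells were diluted to OD600 0.1–0.2 and exposed to each library compound at 150 µM in 200 µl per well, in biological duplicates with untreated cultures beside them, and OD600 was read at 0 h and after 18 h at 30 °C. Any compound under 70% in both replicates was not carried to dose-response.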

As for `N=C(N)Nc1ccc(-c2ccc(-c3ccc(N=C(N)N)c(Cl)c3)o2)cc1Cl`, the “growth inhibition at single dose” value is under 70%. Regarding `COc1cccc(OCC(=O)c2ccc(Br)cc2)c1`, the “growth inhibition at single dose” value is under 70%. Take `COc1cc2c(cc1OC)CN(CCNc1ncnc3sccc13)CC2`: the “growth inhibition at single dose” value was under 70%.

In the case of `CCCc1c(CC)c(=N)c2ccccc2n1C`, the “growth inhibition at single dose” value is under 70%. For `c1ccc(-c2ccc(-c3nc4ccccc4[nH]3)cc2)cc1`, the “growth inhibition at single dose” value was under 70%. On to `O=C(NC1CC1)c1ccc(CSCc2ccccc2Cl)o1`, for which the “growth inhibition at single dose” value is under 70%. Consider `COc1cc(-c2nc(-c3ccc(Sc4ccccc4)cc3)c(-c3ccccc3)[nH]2)cc(OC)c1O`, for which the “growth inhibition at single dose” value was under 70%.

On to `CS(=O)(=O)c1ccc(C(=O)N(CC2CCCO2)c2nc3ccccc3s2)cc1[N+](=O)[O-]` (stereo not drawn), for which the “growth inhibition at single dose” value is under 70%. With `COc1cccn2c(C(=O)N3CCCCC3)c(C(F)(F)F)nc12`, the “growth inhibition at single dose” value is under 70%.

In the case of `CCOC(=O)C1=C(c2ccccc2)N=c2sc(=Cc3cc(C)n(-c4ccc(F)cc4)c3C)c(=O)n2C1c1cccc(OC)c1OC` (stereo not drawn), the “growth inhibition at single dose” value is under 70%. Then `Cc1noc(C)c1C(=O)OCC(=O)c1cc(C)n(-c2ccccc2F)c1C`, with under 70%; and `CCOc1ccccc1CNC(=O)C1c2ccccc2C(=O)N(CC(C)C)C1c1cccs1` (stereo not drawn), with under 70%; and `CC(C)CNC(=O)c1c(N)n(CCc2ccccc2F)c2nc3ccccc3nc12`, with under 70%.

With `COc1ccc(-c2cc(=O)oc3c4c(ccc23)OCN(Cc2ccc(F)cc2)C4)cc1`, the “growth inhibition at single dose” value is under 70%. With `COc1cccc(-c2csc(-c3nnc4n3-c3ccccc3SC4)n2)c1`, the “growth inhibition at single dose” value was under 70%. As to `O=C(Nc1ncc(Cc2ccc(Br)cc2)s1)c1ccc2n[nH]nc2c1`, the “growth inhibition at single dose” value is under 70%. On to `CCOc1cc(Cl)c(C(C)NC(=O)c2ccccc2)cc1OCC` (stereo not drawn), for which the “growth inhibition at single dose” value was under 70%. As to `CCOC(=O)c1c(NC(=O)c2ccccc2)sc2c(O)c(CN(CC)CC)ccc12`, the “growth inhibition at single dose” value is under 70%.

In the case of `CC1Cc2cc(C3=NNC(=NC4CC4)SC3)ccc2N1S(C)(=O)=O` (stereo not drawn), the “growth inhibition at single dose” value is under 70%. Consider `N#Cc1ccc(CN2CCCN(c3ncnc4sccc34)CC2)cc1`, for which the “growth inhibition at single dose” value was under 70%. For `Cc1ccc(OCCCCCCNCCO)c(C)c1`, the “growth inhibition at single dose” value was under 70%. Regarding `COc1ccc(S(=O)(=O)N(Cc2ccc(C(=O)NC3CC3)cc2)C2CC2)cc1OC`, the “growth inhibition at single dose” value is under 70%. Then `CCc1ccc(Nc2cc(C)nc3nc(C)nn23)cc1`, with under 70%.

For `Cn1ncc2c(N3CCN(CC(=O)Nc4nc(-c5c[nH]c6ccccc56)cs4)CC3)ncnc21`, the “growth inhibition at single dose” value is under 70%. `C=CCN(C(=O)c1[nH]c(C)c(C(C)=O)c1C)c1nc2c(s1)CCCC2`: the “growth inhibition at single dose” value is under 70%. Then `CN(C)CCNc1cc(-c2ccccc2)nc2ccccc12`, with under 70%; and `COc1ccc2nc(C)cc(OCC(=O)Nc3ccccc3OC)c2c1`, with under 70%. As to `CC(=O)NCCc1nc2ccccc2n1Cc1ccc(C(C)C)cc1`, the “growth inhibition at single dose” value was under 70%.

Consider `COc1ccc(CCn2nc(C(=O)NC3CC3)c3c2CCN(C(=O)c2cc(C)n[nH]2)C3)cc1`, for which the “growth inhibition at single dose” value was under 70%. On to `CCCNC(=O)N1CCC2(CC1)CC(=O)c1cc(C)ccc1O2`, for which the “growth inhibition at single dose” value is under 70%.

For the compound `CC(C)NS(=O)(=O)c1cccc(CNc2ncnc3ccccc23)c1`, the “growth inhibition at single dose” value was under 70%. For `COC(=O)c1cc(C(=O)OC)cc(-n2c(C)cc(C(=O)Cn3ncc(Cl)c(Cl)c3=O)c2C)c1`, the “growth inhibition at single dose” value is under 70%. As for `COc1cc(OC)c(N(C)C(=O)c2cc3c(s2)-c2ccccc2S(=O)(=O)C3)cc1Cl`, the “growth inhibition at single dose” value is under 70%. `OCCNCc1cc(Br)ccc1OCc1ccc(F)cc1`: the “growth inhibition at single dose” value is under 70%.

Consider `CC(=O)NCc1ccc(C(=O)Nc2ccccc2O)cc1`, for which the “growth inhibition at single dose” value was under 70%.

As to `Cc1cnc(N2CCN[C@@H](Cc3ccccc3)C2)nc1Oc1ccc(-n2ccnc2)cc1`, the “growth inhibition at single dose” value is under 70%. Regarding `c1ccc2sc(-c3nc4ccccc4s3)nc2c1`, the “growth inhibition at single dose” value was under 70%. For the compound `COc1ccc(C2=NN(C3CCCCCC3)C(=O)[C@@H]3CC=CC[C@H]23)cc1OCCCCOc1ccc(-c2nn[nH]n2)cc1`, the “growth inhibition at single dose” value was under 70%. In the case of `Cc1ccccc1-n1c(C)cc(/C=C(\C#N)C(=O)NCC2CCCO2)c1C` (stereo not drawn), the “growth inhibition at single dose” value is under 70%. For `O=C(Nc1ccc(F)c(Cl)c1)c1[nH]nc2ccccc12`, the “growth inhibition at single dose” value was under 70%. With `CCc1nc(COC(=O)c2c(C)nsc2NC)cs1`, the “growth inhibition at single dose” value is under 70%.

Regarding `FC(F)(F)c1nc(NCCNc2ccccn2)c2ccccc2n1`, the “growth inhibition at single dose” value is under 70%. For the compound `CCOc1ccc(C=Cc2nc(=O)c3ccccc3o2)cc1`, the “growth inhibition at single dose” value is under 70%. In the case of `CCOc1c(Cl)cc(CNC(C)C(O)c2ccccc2)cc1OC` (stereo not drawn), the “growth inhibition at single dose” value was under 70%. `CC(C)(C)OC(=O)N1CCN(c2cc(-c3ccc(Oc4ccccc4)cc3)n[nH]2)CC1`: the “growth inhibition at single dose” value is under 70%. Take `CC(=O)C1C2C(=O)N(C(C)(C)C)C(=O)C2C2C=Cc3ccc4cccnc4c3N21` (stereo not drawn): the “growth inhibition at single dose” value was under 70%. Then `Cc1ccccc1C(=O)OCC(=O)c1cc(C)n(Cc2ccco2)c1C`, with under 70%; and `COc1ccc(-c2nonc2NC(=O)c2cccc(C)c2)cc1OC`, with under 70%; and `CC(C)(C)c1cnc(NC(=O)c2ccccc2O)s1`, with under 70%. Turning to `COc1ccc(-c2nc3cc(Cc4ccc5[nH]c(-c6ccc(OC)cc6)nc5c4)ccc3[nH]2)cc1`, the “growth inhibition at single dose” value is under 70%. `COc1ccc(CNC2CCN(c3ccc(NC(=O)c4cccc(Cl)c4)cc3)CC2)cc1OC`: the “growth inhibition at single dose” value was under 70%. For `O=C(Nc1cc(Cl)cc(Cl)c1)c1cc(Br)ccc1O`, the “growth inhibition at single dose” value is under 70%. Take `CC(C(=O)N1CCCC1)N1CCN(S(=O)(=O)c2ccc(C(C)(C)C)cc2)CC1` (stereo not drawn): the “growth inhibition at single dose” value is under 70%. In the case of `O=C(NC1CCCCC1)N1CCN(Cc2ccc3c(c2)OCO3)CC1`, the “growth inhibition at single dose” value is under 70%. Then `CC(C)Cn1c(N)c(C(=O)CSc2nnc(COc3ccccc3Cl)o2)c(=O)n(C)c1=O`, with under 70%. As for `CCc1cc(=O)n(C)c(SC(C)C(=O)Nc2ccc(F)cc2)n1` (stereo not drawn), the “growth inhibition at single dose” value was under 70%. Consider `CCCOc1ccc(C(F)(F)F)cc1NC(=O)c1nc2nccc(C)n2n1`, for which the “growth inhibition at single dose” value is under 70%. Then `Cc1ccc(S(=O)(=O)Nc2cccc3ncccc23)s1`, with under 70%; and `CCc1c(C)c(=N)c2ccccc2n1C`, with under 70%; and `CCn1c2c(c(=N)c3c1CCC3)CCCC2`, with under 70%. Consider `CCOC(=O)c1c(C)[nH]c(C(=O)CSc2nnc(C3CC3)n2N)c1C`, for which the “growth inhibition at single dose” value is under 70%. Then `COc1cc(C(=O)Nc2nc3c(cc4c5c(cccc53)CC4)s2)cc(OC)c1OC`, with under 70%.

`CCC(O)c1ccc(Br)cc1NC(=O)c1cccc(Cl)c1` (stereo not drawn): the “growth inhibition at single dose” value was under 70%. Consider `O=C(Nc1nc2ccc(Oc3ccccc3)cc2s1)C1=COCCO1`, for which the “growth inhibition at single dose” value was under 70%. As to `COc1ccc(C=C2SC(Nc3ccc(F)cc3)=NC2=O)c(OC)c1`, the “growth inhibition at single dose” value is under 70%.

Take `CCOc1cc(Cl)c(C(C)NC(=O)c2cccc(OC)c2)cc1OCC` (stereo not drawn): the “growth inhibition at single dose” value was under 70%. `CN1CCN(c2ncnc3c2[nH]c2ccc(Cl)cc23)CC1`: the “growth inhibition at single dose” value is under 70%.

Turning to `COC(=O)c1c(NC(=O)c2c(F)c(F)c(F)c(F)c2F)sc2c1CCCCC2`, the “growth inhibition at single dose” value is under 70%. On to `COc1ccc(C=C2SC(=N)N(c3ccccc3OC)C2=O)cc1`, for which the “growth inhibition at single dose” value is under 70%. As for `Cc1cc(N(C)C)nc(Nc2ccc(NC(=O)Nc3ccccc3)cc2)n1`, the “growth inhibition at single dose” value was under 70%. Regarding `O=C(/C=C/c1ccc([N+](=O)[O-])cc1)NCC(=O)N1CCN(S(=O)(=O)c2ccc(Cl)cc2)CC1`, the “growth inhibition at single dose” value is under 70%. As for `Cc1ccc2nc(C)c(-c3ccn(Cc4ccccc4)n3)n2c1`, the “growth inhibition at single dose” value was under 70%. For the compound `CCN(CC)CCNc1ncnc2c1[nH]c1ccc(Cl)cc12`, the “growth inhibition at single dose” value was under 70%. As to `COc1ccccc1N1CCN(c2nc(=O)c3c([nH]2)CCC3)CC1`, the “growth inhibition at single dose” value is under 70%.

For `Cc1cc(C(=O)NCC#Cc2cccc(C(F)(F)F)c2)on1`, the “growth inhibition at single dose” value was under 70%.

With `Cc1cc(C(=O)Cn2nnc3ccccc3c2=O)c(C)n1-c1ccccc1`, the “growth inhibition at single dose” value is under 70%.

With `CCCn1c(CNc2ccccc2O)nc2ccccc21`, the “growth inhibition at single dose” value is under 70%. The figure for `COc1cccc(/C=C/c2n[nH]c(=O)c(C#N)c2C)c1` is under 70%; for `COc1ccc(CCN2CCC(CN(C)Cc3cnn(-c4ccccc4)c3)CC2)cc1` it is under 70%; for `CC(=O)NCC1CN(c2ccc(-c3ccc(CNCc4cn[nH]n4)cc3)c(F)c2)C(=O)O1` (stereo not drawn) it is under 70%. Consider `CCc1ccc(/C=C/c2ccc3cccc(O)c3n2)cc1`, for which the “growth inhibition at single dose” value was under 70%. Regarding `Cc1nc(NCCNc2cnccn2)c2c(-c3cccs3)csc2n1`, the “growth inhibition at single dose” value was under 70%. For the compound `COc1ccc(C(=O)Nc2ccc(Cl)cc2C(=O)Nc2ccncc2)cc1`, the “growth inhibition at single dose” value is under 70%.
